Read-outs that look alike come from different tables or passages of the source.
Columns and labels:
Type in all cases: cell-based, human
[1] = system: MES-SA uterine sarcoma cells; conditions: for Inhibition of cell proliferation: 5 μM, counted after 72 h; for IC50: cells counted after 72 h, ± SEM
Method: MES-SA cells were treated for 1 h at 37 or 42° C. with 5 μM Tat-ELP-GFLG-DOX (SEQ ID NO: 3); ELP-GFLG-DOX (SEQ ID NO: 3), which lacks the Tat cell penetrating peptide; or Tat-ELP-GFLG (SEQ ID NO: 3), which is not labeled with DOX. After the 1 h treatment, cells were rinsed and fresh media was replaced for 72 h. Cells remaining after 72 h were collected by trypsinization and counted using a Coulter counter. […] Similarly, the control polypeptide which lacks the Tat sequence was not cytotoxic, likely because it cannot efficiently enter the cells.
1.8 Cytotoxicity Assay. Cells were plated and treated for 1 h at 37° C. and 42° C. as described above with Tat-ELP1-GFLG-Dox (SEQ ID NO: 3), Tat-ELP2-GFLG-Dox (SEQ ID NO: 3), or control polypeptides lacking the Tat sequence or unlabeled with Dox. Cells were rinsed and harvested 72 h after treatment by trypsinization, collected by centrifugation, and resuspended in isotonic buffer. Cell number was determined using a Coulter counter and expressed as a percentage of untreated cells.
1.10. Data Fitting and Statistical Analysis. The concentration dependence of the Tt was fit with a logarithmic equation using Microsoft Excel. Dose-response curves were fit using exponential or sigmoid equations as applicable using Microcal Origin in order to determine the 50% inhibitory concentration (IC50). […] The significance of the thermal targeting index was assessed by comparing the normothermia group with the hyperthermia group using a paired Student's t-test in Microsoft Excel. p values of less than 0.05 were considered statistically significant. Polypeptide uptake and caspase activation were analyzed for statistical differences using one-way ANOVA analyses with post-hoc Scheffe's tests for pair-wise comparisons of treatment groups. The statistical significance level was p<0.05.
3.5. Cytotoxicity of ELP-delivered Dox. The growth-inhibitory activity of Tat-ELP-GFLG-Dox (SEQ ID NO: 3) was evaluated in the MES-SA uterine sarcoma cell line. MES-SA cells were treated for 1 h at 37° C. or 42° C. with various concentrations of Tat-ELP-GFLG-Dox (SEQ ID NO: 3); ELP-GFLG-Dox (SEQ ID NO: 3), which lacks the Tat cell penetrating peptide, the Tat-ELP-GFLG (SEQ ID NO: 3) polypeptide without Dox; or free Dox. After the 1 h treatment, the cells were rinsed and fresh media was replaced for 72 h. Cells remaining after 72 h were rinsed, collected by trypsinization, and counted using a Coulter counter. […] The toxicity of the unlabeled Tat-ELP-GFLG (SEQ ID NO: 3) protein was negligible when treated below the Tt.

[2] = system: MES-SA uterine sarcoma cells; assay: Polypeptide uptake by flow cytometry of Dox fluorescence
Method: In order to test whether the induction of ELP aggregation with hyperthermia can enhance the cellular uptake of the polypeptide, MES-SA uterine sarcoma cells were incubated with Tat-ELP-GFLG-DOX (SEQ ID NO: 3) for 1 h at either 37 or 42° C. Cells were then analyzed by flow cytometry, using the natural DOX fluorescence to quantify the amount of drug in the cells. When treated with the ELP1 containing construct, which aggregates at 40° C., the amount of drug delivered to the cells increases almost 2-fold (FIG. 10). […] This illustrates that the enhanced uptake observed after hyperthermia is the result of the ELP phase transition, not nonspecific effects of hyperthermia.
1.6. Polypeptide Uptake. Cells were treated with 20 μM Tat-ELP1-GFLG-Dox (SEQ ID NO: 3), Tat-ELP2-GFLG-Dox (SEQ ID NO: 3), or control polypeptides lacking the Tat sequence as described above. Duplicate plates were treated for 1 h at 37° C. and 42° C. Cells were rinsed with PBS and harvested using nonenzymatic cell dissociation buffer (Invitrogen), centrifuged for 2 min, and resuspended in 0.5 ml PBS. Total uptake of the doxorubicin labeled polypeptides was measured using the intrinsic Dox fluorescence by a Cytomics FC 500 flow cytometer (Beckman Coulter, Fullerton, Calif.). Forward versus side scatter gating was used to remove cell debris from the analysis, and Dox fluorescence was measured using FL3. Each histogram was a unimodal peak (n=5000 cells), and the peak mean was normalized to propidium standard beads.
3.3. Cellular Uptake of ELP-delivered Doxorubicin. MES-SA uterine sarcoma cells were used in this study to evaluate the efficiency of ELP-mediated cellular delivery of doxorubicin. […] After harvesting the cells with non-enzymatic cell dissociation buffer to prevent degradation of polypeptide attached to the cell surface, the non-fixed cells were analyzed by flow cytometry to measure the Dox fluorescence. […] Cellular fluorescence was increased over 2 fold when the MES-SA cells were treated with Tat-ELP1-GFLG-Dox (SEQ ID NO: 3) at 42° C. rather than 37° C. […]

MES-SA cells = assay: Confocal fluorescence microscopy of intracellular localization; conditions: 10 μM
Method: 1.7. Laser Scanning Confocal Fluorescence Microscopy. MES-SA cells were plated on 22 mm^2 cover slips at approximately 50% confluence and treated as described above with Tat-ELP-GFLG-Dox (SEQ ID NO: 3). Cells were rinsed with PBS at the indicated times, fixed with paraformaldehyde (PFA, 2% v/v) and visualized using a TCS SP2 laser scanning confocal microscope with a 100× oil immersion objective (Leica, Wetzlar, Germany). PMT voltages were lowered for imaging of cells treated at 42° C. during image acquisition to maximize image resolution and intensity.
3.4. Cellular Distribution. To confirm that Tat-ELP-GFLG-Dox (SEQ ID NO: 3) was internalized and not merely attached to the cell exterior, the cellular distribution of the ELP-delivered drug was examined by confocal fluorescence microscopy. MES-SA cells were treated for 1 h at 37° C. and 42° C. with 10 μM Tat-ELP1-GFLG-Dox (SEQ ID NO: 3). The cells were rinsed and analyzed immediately after treatment and 24 h later using the intrinsic Dox fluorescence. […] Untreated cells had no signal under the imaging settings used, ruling out any contribution to the images from autofluorescence (FIG. 7B, right panel).

With Tat-ELP1-GFLG-Dox the Cytotoxicity in words [1] was “cytotoxic at 37° C., but high concentrations were needed”, the “Enhancement of cytotoxicity (reduction of IC50) by hyperthermia” value [1] was “twenty-fold” and the “Inhibition of cell proliferation” value ([1]; 1 h at 37° C.) was “little toxicity”. For the same substance, the “Inhibition of cell proliferation” value ([1]; 1 h at 42° C.) was “complete inhibition of cell proliferation”, the IC50 ([1]; 1 h treatment at 37° C., read-out: IC50 (37° C.)) was 21.9 ± 8.2 µM and the IC50 ([1]; 1 h treatment at 42° C., read-out: IC50 (42° C.)) was 1.1 ± 0.1 µM. For the same substance, the “Increase of drug delivered to cells at 42° C. versus 37° C.” value ([2]; 10 μM, 1 h (FIG. 10)) was about 2 fold, the “Increase of cellular fluorescence at 42° C. versus 37° C.” value ([2]; 20 μM, 1 h) was “over 2 fold” and the “Uptake relative to ELP1-GFLG-Dox” value ([2]; 20 μM, 1 h, 42° C.) was 6 fold. The “Intracellular localization of Dox” value (MES-SA cells; 24 h after 1 h exposure) was “remained in the cell cytoplasm” and the “Intracellular localization of Dox” value (MES-SA cells; after 1 h exposure) was “plasma and nuclear membranes as well as in a punctate pattern in the cytoplasm”.

— patent US8252740B2, “Thermally-targeted delivery of medicaments including doxorubicin” (The University of Mississippi Medical Center, priority 2006, dated 2012)
